Measurements from patent US7741338B2, “Macrolides” (Novartis AG, priority 1998, dated 2010).

Assays:
[1] = storage stability, sum of by-products and degradation products after 1 week storage; type: physicochemical; details: 50° C. in open flask
From the text: The sum of by-products and degradation products in % after 1 week storage are as follows: […]

[2] = in vitro and in vivo immunosuppressive activity; details: crystalline form compared with amorphous form
Experimental: (§1) In the localized GvHD, maximal inhibition (70-80%) of lymph node swelling is achieved with a dosage of 3 mg with 40-O-(2-hydroxy)ethyl-rapamycin in crystalline form.

[3] = system: localized GvHD; test: localized GvHD, inhibition of lymph node swelling; type: in vivo; details: dosage of 3 mg
Experimental: as §1

| sum of by-products and degradation products [1] [%] | Structure (SMILES) | in vitro and in vivo immunosuppressive activity [2] | maximal inhibition of lymph node swelling [3] |
| --- | --- | --- | --- |
| >10 | CO[C@H]1C[C@@H]2CC[C@@H](C)[C@@](O)(O2)C(=O)C(=O)N2CCCC[C@H]2C(=O)O[C@H]([C@H](C)C[C@@H]2CC[C@@H](OCCO)[C@H](OC)C2)CC(=O)[C@H](C)/C=C(\C)[C@@H](O)[C@@H](OC)C(=O)[C@H](C)C[C@H](C)/C=C/C=C/C=C/1C [Without BHT, 40-O-(2-hydroxy)ethyl-rapamycin] | – | – |
| – | CO[C@H]1C[C@@H]2CC[C@@H](C)[C@@](O)(O2)C(=O)C(=O)N2CCCC[C@H]2C(=O)O[C@H]([C@H](C)C[C@@H]2CC[C@@H](OCCO)[C@H](OC)C2)CC(=O)[C@H](C)/C=C(\C)[C@@H](O)[C@@H](OC)C(=O)[C@H](C)C[C@H](C)/C=C/C=C/C=C/1C [40-O-(2-hydroxy)ethyl-rapamycin] | comparable to that of the amorphous form | 70-80% |
